{"source": "patent US12521396B2", "about": "“Pharmaceutical compositions comprising a MENIN inhibitor” (Kura Oncology, Inc., priority 2023, dated 2026)", "key": {"[1]": {"assay": "Excipient compatibility and formulation stability studies", "assay_type": "physicochemical", "settings": "excipient compatibility studies for tablet formulations", "description": "Compound 1 drug substance may have a low bulk density, small particle size, and needle-like morphology, all leading to poor flowability. Dry granulation using roller compaction was improved the powder flow and bulk density characteristics to enable capsule-filling. In addition, while glidants such as talc and colloidal silicon dioxide were not effective in improving powder flow and bulk density characteristics, mannitol and microcrystalline cellulose fillers improved the blend flow in the roller compactor.\nIn particular, these studies indicated less risk of instability in the presence of lactose as a diluent compared to mannitol."}, "[2]": {"assay": "Solid form stability on standing after recrystallization from MEK/IPA", "assay_type": "physicochemical", "settings": "recrystallized from MEK/IPA at 40° C., filtered at 25° C.", "procedure": "Preparation A: Amorphous Compound 1 (prepared as described in U.S. Pat. No. 10,781,218, which is herein incorporated by reference in its entirety) was dissolved in 1:1 MEK/IPA v/v (4.5 mL/g) at ˜50-65° C. under N2. The solution was cooled to 33-37° C. Seed crystals were added (0.8-1.2 wt % relative to Compound 1) and the mixture was stirred for 4-6 h at 33-37° C. The mixture was cooled to 23-27° C. over 3-4 hours and stirred for 16-24 hours. Isopropanol (8.6-9.1 mL/g Compound 1) was added at 23-27° C. over 9-11 hours and then the mixture was stirred for 5-6 hours. The mixture was cooled to 3-8° C. over 4-6 hours and stirred for at least 24 hours. The resulting solid precipitate was collected at 5° C. The filter cake was rinsed with IPA (1.8-2.1 mL/g Compound 1) at 3-8° C. and dried under vacuum at 45-55° C. for 24-32 hours. XRPD analysis confirmed the isolated material as crystalline Compound 1, Form 1. Purity of 99.5% by HPLC and total residual solvents was about 0.4% wt by ^1H NMR. Recrystallization of Compound 1, Form 1, in MEK/IPA (6 v/12 v) by dissolving in MEK and adding IPA in portions at 25° C., stirring the suspension after addition of each IPA portion, cooling to 5° C., and stirring at 5° C. for 20 h produced a wet cake that was a mixture of two crystalline forms (Form 2 and Form 5) that were not Form 1. […]"}}}
{"smiles": "CNc1nc(NC2CCN(Cc3ccc4c(cc(C#N)n4C[C@H](C)N4CCN(S(C)(=O)=O)CC4)c3C)CC2)c2cc(CC(F)(F)F)sc2n1", "note": "[Compound 1, (S)-4-methyl-5-((4-((2-(methylamino)-6-(2,2,2-trifluoroethyl)thieno[2,3-d]pyrimidin-4-yl)amino)piperidin-1-yl)methyl)-1-(2-(4-(methylsulfonyl)piperazin-1-yl)propyl)-1H-indole-2-carbonitrile]", "values": [{"measurement": "Stability of Compound 1 with excipients", "setting": "[1]", "value": "impact to Compound 1 stability with certain excipients"}]}
{"smiles": "CNc1nc(NC2CCN(Cc3ccc4c(cc(C#N)n4C[C@H](C)N4CCN(S(C)(=O)=O)CC4)c3C)CC2)c2cc(CC(F)(F)F)sc2n1", "note": "[Form 1, (S)-4-methyl-5-((4-((2-(methylamino)-6-(2,2,2-trifluoroethyl)thieno[2,3-d]pyrimidin-4-yl)amino)piperidin-1-yl)methyl)-1-(2-(4-(methylsulfonyl)piperazin-1-yl)propyl)-1H-indole-2-carbonitrile]", "values": [{"measurement": "Solid form stability upon standing", "setting": "[2]", "value": "converted to Form 5"}]}
